Source: patent US20220372014A1, “NEUROPROTECTIVE COMPOUNDS AND METHODS OF USE THEREOF” (The Johns Hopkins University, priority 2019, published 2022)
Entries after “also recorded” stand apart in the source; their conditions may differ.

Key:
SH-SY5Y cells = test: Staurosporine (STS)-induced apoptotic cell death, Alamar blue; assay type: cell-based; settings: 0.5 μM STS
Method: (§1) Graphs represent mean±s.e.m. ***P<0.0005, two-way ANOVA followed by Tukey's post hoc test (n=3). A PARP inhibitor, ABT-888 is used for the positive control. FIGS. 12B and 12C show in vitro oxidoreductase and tautomerase activity of MIF/PAAN with compound 41, 56, 76, or 77. FIGS. 12D and 12E show Alamar blue cell viability assay from SH-SY5Y cells pre-incubated with compound 41, 56, 76, or 77 in response to 0.5 μM staurosporine (STS) or from HT 22 cells incubated with 1 ng/ml of TNF-α with 50 μM z-VAD. A pan caspase inhibitor, z-VAD or necrostatin (Nec-1) is used for the positive control and PARP inhibitor, ABT-888 is used for negative control. Bars represent mean±s.e.m. ***P<0.0005, two-way ANOVA followed by Tukey's post hoc test (n=3). […] Bars represent mean±s.e.m. **P<0.005, ***P<0.0005, two-way ANOVA followed by Tukey's post hoc test (n=3).
(§2) FIGS. 14A-14G show the characterization of compound 121. […] Bars represent means±s.e.m. ***P<0.0005, two-way ANOVA followed by Tukey's post hoc test (n=4). […] Bars represent mean±s.e.m. ***P<0.0005, two-way ANOVA followed by Tukey's post hoc test (n=4). […] Bars represent means±s.e.m. **P<0.005, ***P<0.0005, one-way ANOVA followed by Tukey's post hoc test (n=3). […] Bar represent mean±s.e.m. ***P<0.0005, one-way ANOVA followed by Tukey's post hoc test (n=3). […] Quantification of inhibition of PARP-1 activity by compound 56, compound 121 and ABT-888 is shown. Graphs represent mean±s.e.m. ***P<0.0005, two-way ANOVA followed by Tukey's post hoc test (n=3). FIGS. 14F and 14G show Alamar blue cell viability assay from SH-SY5Y cells pre-incubated with either compound 56 or 121 in response to (14F) 0.5 μM staurosporine (STS) or (14G) from HT 22 cells incubated with 1 ng/ml of TNF-α with 50 μM z-VAD. Bars represent mean±s.e.m. ***P<0.0005, two-way ANOVA followed by Tukey's post hoc test (n=5).
(§3) Cell death and viability assessment. Primary cultured cortical neurons were treated with 5 μg/ml of α-syn PFF for 14 days and cell death was determined by staining of all nuclei with 7 μM Hoechst 33342 and dead cell nuclei with 2 μM propidium iodide (PI) (Invitrogen). The numbers of total and dead cells were counted with the Axiovision 4.6 software (Carl Zeiss). Cell viability was determined by fluorescence at an excitation wavelength 570 nm and an emission wavelength 585 nm using Alamar Blue (Invitrogen).

PARP = test: MNNG-induced PAR accumulation (PARP activation), western blot; assay type: cell-based; settings: FIG. 12A
Method: Tissue lysate preparation and western blot analysis. Dissected brain regions of interest were homogenized and prepared in lysis buffer [50 mM Tris-HCl (pH 7.4), 150 mM NaCl, 1 mM EDTA, 1% Triton x-100, 0.5% SDS, 0.5% sodium-deoxycholate, phosphatase inhibitor mixture I and II (Sigma-Aldrich, St. Louis, Mo.), and complete protease inhibitor mixture (Roche, Indianapolis, Ind.)]. The samples were rotated at 4° C. for 30 min for the complete lysis and centrifugated at 15,000×g for 30 min. Protein concentrations were determined using the BCA assay (Pierce) and samples were separated using SDS polyacrylamide gels and transferred onto nitrocellulose membranes. The blots were blocked with 5% non-fat milk in TBS-T (Tris buffered saline with 0.1% Tween—20) for 1 h, probed using various primary antibodies. Target antigens were incubated with appropriate HRP-conjugated secondary antibodies (Cell signaling) and were visualized by ECL substrate.
(§4) Cell culture, transfection, primary neuronal culture and treatment. SH-SY5Y cells (ATCC) were cultured in DMEM containing 10% fetal bovine serum and penicillin/streptomycin at 37° C. under 5% C02. The cells were transfected using PolyFect reagent (Qiagen). Parthanatos was induced by the treatment of 50 μM MNNG for 15 min in SH-SY5Y cells. ABT-888 or PAAN/MIF inhibitors were pretreated with indicated concentration 1 h before MNNG treatment and cell death were assessed after 24 h. Primary cortical neurons from WT, PAAN/MIF KO, E22Q KI or P1G KI embryos were prepared as previously described See Kam et al. (2018) Science 362:eaat8407. Briefly, the cortex was dissected and cultured at embryonic day 16 in neurobasal media supplemented with B-27, 0.5 mM L-glutamine, penicillin and streptomycin (Invitrogen). Primary neurons were infected with AAV2-control, AAV2-PAAN/MIF WT, AAV2-PAAN/MIF E22Q, AAV2-PAAN/MIF E22A or AAV2-MIF P1G (ViGene Biosciences) at days in vitro (DIV) 4-5. ABT-888 or PAAN/MIF inhibitors were applied to neurons 1 h before α-syn PFF treatment. The neuron growth medium was replaced with fresh medium alone or including inhibitors every 3-4 days. α-syn PFF was added at DIV 7 and further incubated for indicated times followed by the cell death assay or biochemical experiments.

primary cortical neurons = test: α-syn PFF-induced cell death in mouse primary cortical neurons (Hoechst and PI staining); assay type: cell-based; settings: for α-syn PFF-induced cell death in mouse cortical neurons: pre-treated before α-syn PFF, Hoechst/PI; for toxicity when applied to primary cortical neurons: FIG. 12G
Method: as §4, §3

EcoRI = EcoRI (Escherichia coli, UniProt P00642); test: In vitro nuclease assay of EcoRI (pcDNA3 substrate); assay type: biochemical
Method: (§5) Nuclease assay. Purified PAAN/MIF protein (4 μM) was incubated with compounds (10 μM) in the nuclease buffer [10 mM Tris-C1 (pH 7.0) and 10 mM MgCl2] for 20 m on ice. Then samples were added with 1 μM of PAAN/MIF substrate (PS30 or RF) and incubated for 1 h at 37° C. The reaction was terminated with loading buffer containing 10 mM EDTA and separated on 15% TBE-urea polyacrylamide (PAGE) gel or 20% TBE PAGE gel. For other nucleases (EcoRI and EcoRV) assays, pcDNA3 (500 ng/reaction) was used as a substrate and 0.01 unit of Exonulcase III were incubated with small dsDNA (Sequence ID NO 4:5′-[…]-3′ and Sequence ID NO 5:5′-[…]-3′).

ExoIII = ExoIII (Escherichia coli, UniProt P09030); test: In vitro nuclease assay of ExoIII (18 bp double-strand DNA substrate); assay type: biochemical
Method: as §5

HT 22 cells = test: TNF-α and z-VAD-induced necroptosis, Alamar blue; assay type: cell-based; settings: 1 ng/ml TNF-α with 50 μM z-VAD
Method: as §1, §2, §3

Chain of EcoRI (P00642 whole entry): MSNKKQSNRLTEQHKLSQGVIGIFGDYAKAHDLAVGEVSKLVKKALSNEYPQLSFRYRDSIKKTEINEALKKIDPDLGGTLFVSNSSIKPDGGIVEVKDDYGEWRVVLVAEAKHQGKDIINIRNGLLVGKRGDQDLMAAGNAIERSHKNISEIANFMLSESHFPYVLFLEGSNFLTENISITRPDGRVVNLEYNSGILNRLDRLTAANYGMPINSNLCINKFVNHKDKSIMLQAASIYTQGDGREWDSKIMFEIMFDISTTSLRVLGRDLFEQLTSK
Chain of ExoIII (P09030 whole entry): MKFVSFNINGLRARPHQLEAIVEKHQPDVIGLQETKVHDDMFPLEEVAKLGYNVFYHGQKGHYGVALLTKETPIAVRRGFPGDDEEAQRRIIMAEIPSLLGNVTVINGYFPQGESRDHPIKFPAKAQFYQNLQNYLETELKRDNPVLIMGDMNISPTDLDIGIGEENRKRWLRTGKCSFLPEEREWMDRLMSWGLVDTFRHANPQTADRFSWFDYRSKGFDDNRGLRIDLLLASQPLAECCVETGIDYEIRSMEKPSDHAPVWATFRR

COc1ccc(CC[C@H]2OC(=O)[C@@H]3CCCCN3C(=O)C(=O)C(C)(C)COC(=O)C=CCCN(C)C(=O)[C@@H]3CCCN3C(=O)[C@H](COC(C)(C)C)N(C)C(=O)C(c3ccccc3)NC(=O)[C@H](C)N(C)C(=O)COc3cccc2c3)cc1OC (stereo partly shown) [compound 56]
staurosporine (STS)-induced apoptotic cell death (SH-SY5Y cells): do not inhibit; also recorded: failed to inhibit | MNNG-induced PARP activation (PAR accumulation) (PARP): did not affect | α-syn PFF-induced cell death in mouse cortical neurons (primary cortical neurons): attenuated; also recorded: protected | nuclease activity of EcoRI (EcoRI): do not inhibit | nuclease activity of ExoIII (ExoIII): do not inhibit | TNFα and Z-VAD-induced necroptosis (HT 22 cells): not prevented; also recorded: failed to inhibit

COc1ccc(CC[C@H]2OC(=O)[C@@H]3CCCCN3C(=O)C(=O)C(C)(C)COC(=O)C=CCCN(C)C(=O)[C@H](C)NC(=O)[C@H](C(C)C)N(C)C(=O)[C@@H](Cc3ccccc3)NC(=O)[C@H](CC(C)C)N(C)C(=O)CCC(=O)Nc3cccc2c3)cc1OC [compound 77]
staurosporine (STS)-induced apoptotic cell death (SH-SY5Y cells): do not inhibit | MNNG-induced PARP activation (PAR accumulation) (PARP): did not affect | α-syn PFF-induced cell death in mouse cortical neurons (primary cortical neurons): attenuated | nuclease activity of EcoRI (EcoRI): do not inhibit | nuclease activity of ExoIII (ExoIII): do not inhibit | TNFα and Z-VAD-induced necroptosis (HT 22 cells): not prevented

COc1ccc(CC[C@H]2OC(=O)[C@@H]3CCCCN3C(=O)C(=O)C(C)(C)COC(=O)C=CCCN(C)C(=O)CNC(=O)[C@H](C(C)C)N(C)C(=O)[C@@H](Cc3ccccc3)NC(=O)[C@H](CC(C)C)N(C)C(=O)CCC(=O)Nc3cccc2c3)cc1OC [compound 76]
staurosporine (STS)-induced apoptotic cell death (SH-SY5Y cells): do not inhibit | MNNG-induced PARP activation (PAR accumulation) (PARP): did not affect | toxicity when applied to primary cortical neurons (primary cortical neurons): some toxicity | nuclease activity of EcoRI (EcoRI): do not inhibit | nuclease activity of ExoIII (ExoIII): do not inhibit | TNFα and Z-VAD-induced necroptosis (HT 22 cells): not prevented

COc1ccc(CC[C@H]2OC(=O)[C@@H]3CCCCN3C(=O)C(=O)C(C)(C)COC(=O)C=CCCN(C)C(=O)[C@@H]3CCCN3C(=O)[C@H](COC(C)(C)C)N(C)C(=O)C(c3ccccc3)NC(=O)CN(C)C(=O)COc3cccc2c3)cc1OC (stereo partly shown) [compound 41]
staurosporine (STS)-induced apoptotic cell death (SH-SY5Y cells): do not inhibit | MNNG-induced PARP activation (PAR accumulation) (PARP): did not affect | toxicity when applied to primary cortical neurons (primary cortical neurons): some toxicity | α-syn PFF-induced cell death in mouse cortical neurons (primary cortical neurons): attenuated | nuclease activity of EcoRI (EcoRI): do not inhibit | nuclease activity of ExoIII (ExoIII): do not inhibit | TNFα and Z-VAD-induced necroptosis (HT 22 cells): not prevented

COc1ccc(CC[C@H]2OC(=O)[C@@H]3CCCCN3C(=O)C(=O)C(C)(C)COC(=O)C=CCCN(C)C(=O)[C@@H]3CCCN3C(=O)[C@H](COC(C)(C)C)N(C)C(=O)C(c3ccccc3)NC(=O)[C@H](C)N(C)C(=O)COc3cc(F)cc2c3)cc1OC (mixture of isomers) [compound 121]
staurosporine (STS)-induced apoptotic cell death (SH-SY5Y cells): failed to inhibit | α-syn PFF-induced cell death in mouse cortical neurons (primary cortical neurons): protected | TNFα and Z-VAD-induced necroptosis (HT 22 cells): failed to inhibit
